Reference: patent publication US20230322723A1, “COMPOUNDS FOR SUPPRESSING EGFR MUTANT CANCER AND PHARMACEUTICAL USE THEREOF” (J2H BIOTECH INC., priority 2020, published 2023)

Legend:
EGFR^del19+T790M+C797S = test: EGFR protein degradation test (Western blot) in Ba/F3 cells expressing mutant EGFR del19+T790M+C797S (DTC); assay type: cell-based; details: compounds at 0.1 μM and 1 μM, 24 hours, Western blot with EGFR antibody
Procedure: (§1) The ability of the compounds of the present invention to degrade the mutant EGFR protein was confirmed in Ba/F3 cells expressing normal EGFR, mutant EGFR^del19+T790M+C797S or mutant EGFR^L858R+T790M+C797S. A Western blot test using the EGFR antibody was performed.
(§2) Specifically, Ba/F3 cells expressing EGFR were cultured in RPMI 1640 (Gibco, NY, USA) containing 10% fetal bovine serum (FBS, Gibco, NY, USA). Cells expressing normal EGFR, mutant EGFR^del19+T790M+C797S or mutant EGFR^L858R+T790M+C797S were treated with the compounds of the present invention at concentrations of 0.1 μM and 1 μM, respectively, for 24 hours. After that, it was washed twice with phosphate buffered saline (PBS) and SDS-PAGE was performed with 30 μg of cell lysate. After the protein separated on the gel was transferred to a nitrocellulose membrane, the expression level of the EGFR protein was confirmed using an EGFR antibody (Santa Cruz biotechnology, Santacruz, CA, USA). EGFR bands separated by Western blotting were quantitatively analyzed with Fluo-S MultiImager (Bio-Rad, Hercules, CA, USA).

EGFR^L858R+T790M+C797S = target: T1, EGFR^L858R+T790M+C797S (Homo sapiens, UniProt P00533, C797S/L858R/T790M); test: EGFR protein degradation test (Western blot) in Ba/F3 cells expressing mutant EGFR L858R+T790M+C797S (LTC); assay type: cell-based; details: compounds at 0.1 μM and 1 μM, 24 hours, Western blot with EGFR antibody
T1 construct: expressed in transfected cells; host or cells: Ba/F3
Procedure: as §1, §2

T1 sequence (P00533 25-1210 T790M/C797S/L858R): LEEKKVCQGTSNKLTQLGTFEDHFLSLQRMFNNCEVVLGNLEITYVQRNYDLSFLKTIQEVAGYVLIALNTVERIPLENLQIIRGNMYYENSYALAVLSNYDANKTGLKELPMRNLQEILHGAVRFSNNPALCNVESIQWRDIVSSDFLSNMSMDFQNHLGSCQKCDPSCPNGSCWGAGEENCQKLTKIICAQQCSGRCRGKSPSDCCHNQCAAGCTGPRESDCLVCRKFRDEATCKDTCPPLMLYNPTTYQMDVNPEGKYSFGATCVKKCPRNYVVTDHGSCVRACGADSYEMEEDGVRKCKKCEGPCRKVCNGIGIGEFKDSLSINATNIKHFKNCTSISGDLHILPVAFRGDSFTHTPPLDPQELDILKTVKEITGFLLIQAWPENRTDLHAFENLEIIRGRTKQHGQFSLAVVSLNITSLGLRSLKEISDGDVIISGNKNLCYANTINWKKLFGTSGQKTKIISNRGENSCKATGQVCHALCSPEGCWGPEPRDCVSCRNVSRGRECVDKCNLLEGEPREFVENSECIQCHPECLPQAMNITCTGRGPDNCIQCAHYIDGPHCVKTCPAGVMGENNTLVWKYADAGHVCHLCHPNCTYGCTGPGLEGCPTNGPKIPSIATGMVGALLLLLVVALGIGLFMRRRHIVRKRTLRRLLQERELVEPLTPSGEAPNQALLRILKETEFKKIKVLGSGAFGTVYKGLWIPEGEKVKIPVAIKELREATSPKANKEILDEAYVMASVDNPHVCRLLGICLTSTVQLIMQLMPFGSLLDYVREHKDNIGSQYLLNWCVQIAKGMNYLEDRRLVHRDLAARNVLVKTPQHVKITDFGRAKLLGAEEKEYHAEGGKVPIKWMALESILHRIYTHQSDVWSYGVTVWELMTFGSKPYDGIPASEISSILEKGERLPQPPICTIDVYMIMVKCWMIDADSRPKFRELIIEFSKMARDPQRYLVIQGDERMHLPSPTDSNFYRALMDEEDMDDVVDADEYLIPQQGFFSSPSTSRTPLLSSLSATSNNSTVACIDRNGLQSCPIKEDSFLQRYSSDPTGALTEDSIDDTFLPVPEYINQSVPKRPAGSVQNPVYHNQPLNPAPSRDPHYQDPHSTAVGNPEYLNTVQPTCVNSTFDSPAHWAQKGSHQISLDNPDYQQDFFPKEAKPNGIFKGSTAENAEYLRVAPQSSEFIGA

Compound | DTC (EGFR^del19+T790M+C797S) protein degradation (EGFR^del19+T790M+C797S) | LTC (EGFR^L858R+T790M+C797S) protein degradation (EGFR^L858R+T790M+C797S)
COc1cc(N2CCN(CC#Cc3ccc4c(c3)C(=O)N(C3CCC(=O)NC3=O)C4=O)CC2)ccc1Nc1ncc(Cl)c(Nc2ccccc2N(C)S(C)(=O)=O)n1 (centres unmarked) [Compound 73, N-(2-((5-chloro-2-((4-(4-(3-(2-(2,6-dioxopiperidin-3-yl)-1,3-dioxoisoindolin-5-yl)prop-2-yn-1-yl)piperazin-1-yl)-2-methoxyphenyl)amino)pyrimidin-4-yl)amino)phenyl)-N-methylmethanesulfonamide] | − (Protein degradation < 20%) | − (Protein degradation < 20%)
COc1cc(N2CCC(N3CCN(C[C@@H]4CCCN4c4ccc5c(c4)C(=O)N(C4CCC(=O)NC4=O)C5=O)CC3)CC2)ccc1Nc1ncc(Cl)c(Nc2ccccc2N(C)S(C)(=O)=O)n1 (stereo partly drawn) [Compound 44, N-(2-((5-chloro-2-((4-(4-(4-(((2S)-1-(2-(2,6-dioxopiperidin-3-yl)-1,3-dioxoisoindolin-5-yl)pyrrolidin-2-yl)methyl)piperazin-1-yl)piperidin-1-yl)-2-methoxyphenyl)amino)pyrimidin-4-yl)amino)phenyl)-N-methylmethanesulfonamide] | − (Protein degradation < 20%) | + (Protein degradation 20~80%)
COc1cc(N2CCC3(CCN(CC(=O)Nc4cccc5c4CN(C4CCC(=O)NC4=O)C5=O)CC3)CC2)ccc1Nc1ncc(Cl)c(Nc2ccccc2N(C)S(C)(=O)=O)n1 (centres unmarked) [Compound 50, 2-(9-(4-((5-chloro-4-((2-(N-methylmethylsulfonamido)phenyl)amino)pyrimidin-2-yl)amino)-3-methoxyphenyl)-3,9-diazaspiro[5.5]undecan-3-yl)-N-(2-(2,6-dioxopiperidin-3-yl)-1-oxoisoindolin-4-yl)acetamide] | + (Protein degradation 20~80%) | − (Protein degradation < 20%)
COc1cc(N2CCC(N3CCN(CCNc4ccc5c(c4)C(=O)N(C4CCC(=O)NC4=O)C5=O)CC3)CC2)ccc1Nc1ncc(Cl)c(Nc2ccccc2N(C)S(C)(=O)=O)n1 (centres unmarked) [Compound 58, N-(2-((5-chloro-2-((4-(4-(4-(2-((2-(2,6-dioxopiperidin-3-yl)-1,3-dioxoisoindolin-5-yl)amino)ethyl)piperazin-1-yl)piperidin-1-yl)-2-methoxyphenyl)amino)pyrimidin-4-yl)amino)phenyl)-N-methylmethanesulfonamide] | − (Protein degradation < 20%) | + (Protein degradation 20~80%)
COc1cc(N2CCC(N3CCN(CC4CN(c5ccc6c(c5)C(=O)N(C5CCC(=O)NC5=O)C6=O)C4)CC3)CC2)ccc1Nc1ncc(Cl)c(Nc2ccccc2N(C)S(C)(=O)=O)n1 (centres unmarked) [Compound 60, N-(2-((5-chloro-2-((4-(4-(4-((1-(2-(2,6-dioxopiperidin-3-yl)-1,3-dioxoisoindolin-5-yl)azetidin-3-yl)methyl)piperazin-1-yl)piperidin-1-yl)-2-methoxyphenyl)amino)pyrimidin-4-yl)amino)phenyl)-N-methylmethanesulfonamide] | − (Protein degradation < 20%) | ++ (Protein degradation > 80%)
COc1cc(N2CCN(CC3CCN(CC(=O)N[C@H](C(=O)N4C[C@H](O)CC4C(=O)NCc4ccc(-c5scnc5C)cc4)C4CC4)CC3)CC2)ccc1Nc1ncc(Cl)c(Nc2ccccc2N(C)S(C)(=O)=O)n1 (stereo in doubt) [Compound 55, (2R,4R)-1-((S)-2-(2-(4-((4-(4-((5-chloro-4-((2-(N-methylmethylsulfonamido)phenyl)amino)pyrimidin-2-yl)amino)-3-methoxyphenyl)piperazin-1-yl)methyl)piperidin-1-yl)acetamido)-2-cyclopropylacetyl)-4-hydroxy-N-(4-(4-methylthiazol-5-yl)benzyl)pyrrolidin-2-carboxamide] | − (Protein degradation < 20%) | − (Protein degradation < 20%)
COc1cc(N2CCN(CCOCCOCC(=O)N[C@H](C(=O)N3C[C@H](O)C[C@@H]3C(=O)NCc3ccc(-c4scnc4C)cc3)C(C)(C)C)CC2)ccc1Nc1ncc(Cl)c(Nc2ccccc2N(C)S(C)(=O)=O)n1 [Compound 10, (2R,4R)-1-((S)-2-(2-(2-(2-(4-(4-((5-chloro-4-((2-(N-methylmethylsulfonamido)phenyl)amino)pyrimidin-2-yl)amino)-3-methoxyphenyl)piperazin-1-yl)ethoxy)ethoxy)acetamido)-3,3-dimethylbutanoyl)-4-hydroxy-N-(4-(4-methylthiazol-5-yl)benzyl)pyrrolidin-2-carboxamide] | − (Protein degradation < 20%) | − (Protein degradation < 20%)
COc1cc(N2CCC(CN3CCC(C(=O)Nc4cccc5c4CN(C4CCC(=O)NC4=O)C5=O)CC3)CC2)ccc1Nc1ncc(Cl)c(Nc2ccccc2N(C)S(C)(=O)=O)n1 (centres unmarked) [Compound 49, 1-((1-(4-((5-chloro-4-((2-(N-methylmethylsulfonamido)phenyl)amino)pyrimidin-2-yl)amino)-3-methoxyphenyl)piperidin-4-yl)methyl)-N-(2-(2,6-dioxopiperidin-3-yl)-1-oxoisoindolin-4-yl)piperidin-4-carboxamide] | − (Protein degradation < 20%) | − (Protein degradation < 20%)
Cc1ncsc1-c1ccc(CNC(=O)[C@H]2C[C@@H](O)CN2C(=O)[C@@H](NC(=O)CCCCN2CCN(c3ccc(Nc4ncc(Cl)c(Nc5ccccc5N(C)S(C)(=O)=O)n4)cc3F)CC2)C(C)(C)C)cc1 [Compound 17, (2R,4R)-1-((S)-2-(5-(4-(4-((5-chloro-4-((2-(N-methylmethylsulfonamido)phenyl)amino)pyrimidin-2-yl)amino)-2-fluorophenyl)piperazin-1-yl)pentanamido)3,3-dimethylbutanoyl)4-hydroxy-N-(4-(4-methylthiazol-5-yl)benzyl)pyrrolidin-2-carboxamide] | + (Protein degradation 20~80%) | − (Protein degradation < 20%)
COc1cc(N2CCN(CC3CCN(CC4CCN(c5ccc6c(c5)C(=O)N(C5CCC(=O)NC5=O)C6=O)CC4)CC3)CC2)ccc1Nc1ncc(Cl)c(Nc2ccccc2N(C)S(C)(=O)=O)n1 (centres unmarked) [Compound 59, N-(2-((5-chloro-2-((4-(4-((1-((1-(2-(2,6-dioxopiperidin-3-yl)-1,3-dioxoisoindolin-5-yl)piperidin-4-yl)methyl)piperidin-4-yl)methyl)piperazin-1-yl)-2-methoxyphenyl)amino)pyrimidin-4-yl)amino)phenyl)-N-methylmethanesulfonamide] | ++ (Protein degradation > 80%) | + (Protein degradation 20~80%)
COc1cc(N2CCN(CC3CCN(CC4CN(c5ccc6c(c5)C(=O)N(C5CCC(=O)NC5=O)C6=O)C4)CC3)CC2)ccc1Nc1ncc(Cl)c(Nc2ccccc2N(C)S(C)(=O)=O)n1 (centres unmarked) [Compound 61, N-(2-((5-chloro-2-((4-(4-((1-((1-(2-(2,6-dioxopiperidin-3-yl)-1,3-dioxoisoindolin-5-yl)azetidin-3-yl)methyl)piperidin-4-yl)methyl)piperazin-1-yl)-2-methoxyphenyl)amino)pyrimidin-4-yl)amino)phenyl)-N-methylmethanesulfonamide] | − (Protein degradation < 20%) | + (Protein degradation 20~80%)
COc1cc(N2CCN(CC3CCN(CCOc4cccc5c4C(=O)N(C4CCC(=O)NC4=O)C5=O)CC3)CC2)ccc1Nc1ncc(Cl)c(Nc2ccccc2N(C)S(C)(=O)=O)n1 (centres unmarked) [Compound 57, N-(2-((5-chloro-2-((4-(4-((1-(2-((2-(2,6-dioxopiperidin-3-yl)-1,3-dioxoisoindolin-4-yl)oxy)ethyl)piperidin-4-yl)methyl)piperazin-1-yl)-2-methoxyphenyl)amino)pyrimidin-4-yl)amino)phenyl)-N-methylmethanesulfonamide] | − (Protein degradation < 20%) | − (Protein degradation < 20%)
COc1cc(N2CCN(CCOC3CCN(c4ccc5c(c4)C(=O)N(C4CCC(=O)NC4=O)C5=O)CC3)CC2)ccc1Nc1ncc(Cl)c(Nc2ccccc2N(C)S(C)(=O)=O)n1 (centres unmarked) [Compound 34, N-(2-((5-chloro-2-((4-(4-(2-((1-(2-(2,6-dioxopiperidin-3-yl)-1,3-dioxoisoindolin-5-yl)piperidin-4-yl)oxy)ethyl)piperazin-1-yl)-2-methoxyphenyl)amino)pyrimidin-4-yl)amino)phenyl)-N-methylmethanesulfonamide] | − (Protein degradation < 20%) | − (Protein degradation < 20%)
